Test results as given in ChEMBL document CHEMBL1201862, “PubChem BioAssay data set” (2004).
Activity calls are given as the source filed them.

Experiments:
[1] = tested on: HeLa; assay: Cytotoxicity counterscreen assay for transcriptional activators of heat shock protein 70 (Hsp70). [Related pubchem assays: 1203, 1252 ]; assay type: functional; conditions: Homo sapiens;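 note: cells exposed to compound for 16 hours before readout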
[2] = target: T1, Peroxisome proliferator-activated receptor gamma/Nuclear receptor coactivator 3 (Homo sapiens, UniProt P37231); assay: TR-FRET dose response biochemical High Throughput Screening assay for agonists of the steroid receptor coactivator 3 (SRC-3) recruitment by the peroxisome proliferator-activated receptor gamma (PPAR gamma): non-selective agonists. [Related pubchem assays: 1301 (Confirmation screen.), 1048 (Primary screen.)]; assay type: functional
[3] = target: Glucose-6-phosphate 1-dehydrogenase (Homo sapiens, UniProt P11413); assay: human G6PD enzyme inhibitors, dose response, selectivity assay for P. falciparum G6PD inhibitor project, biochemical, fluorescence (AID 504792); assay type: functional
[4] = target: T2, Mannose-6-phosphate isomerase (Homo sapiens, UniProt P34949); assay: inhibitors of human PMI, primary screen, biochemical, fluorescence intensity, coupled assay (AID 1209)
T2 sequence (P34949 whole entry): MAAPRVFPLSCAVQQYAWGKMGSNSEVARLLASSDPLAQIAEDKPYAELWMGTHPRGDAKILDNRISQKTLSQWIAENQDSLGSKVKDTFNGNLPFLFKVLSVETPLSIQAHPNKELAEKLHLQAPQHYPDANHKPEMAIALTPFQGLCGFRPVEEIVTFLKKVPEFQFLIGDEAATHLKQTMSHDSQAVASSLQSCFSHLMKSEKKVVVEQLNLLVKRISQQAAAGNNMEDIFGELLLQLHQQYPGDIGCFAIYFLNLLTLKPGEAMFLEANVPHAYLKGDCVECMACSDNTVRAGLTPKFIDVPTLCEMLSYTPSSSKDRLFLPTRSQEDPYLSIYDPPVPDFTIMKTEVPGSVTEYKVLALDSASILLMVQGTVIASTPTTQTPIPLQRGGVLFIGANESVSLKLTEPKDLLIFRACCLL

[5] = target: T3, Peroxisome proliferator-activated receptor gamma/Nuclear receptor coactivator 2 (Homo sapiens, UniProt P37231); assay: (§1) TR-FRET dose response biochemical High Throughput Screening assay for agonists of the steroid receptor coactivator 2 (SRC-2) recruitment by the peroxisome proliferator-activated receptor gamma (PPAR gamma): non-selective agonists. [Related pubchem assays: 1297, 1032 ]; assay type: functional
[6] = target: T4, Peroxisome proliferator-activated receptor gamma/Nuclear receptor coactivator 1 (Homo sapiens, UniProt P37231); assay: as §1, with “1 (SRC-1)” for “2 (SRC-2)”, “assays (depositor defined):AID1300, AID1808, AID504735, AID631]” for “assays: 1297, 1032 ]”; assay type: protein assay
[7] = target: T2, Mannose-6-phosphate isomerase; assay: human PMI inhibitors, high substrate, primary screen, biochemical, fluorescence intensity, high mannose 6-phosphate (AID 1220)
[8] = target: 5-hydroxytryptamine receptor 1E (Homo sapiens, UniProt P28566); assay: Counterscreen assay for S1P3 antagonists: Dose response cell-based high throughput screening assay to identify antagonists of the 5-Hydroxytryptamine Receptor Subtype 1E (5HT1E). [Related pubchem assays: 1429, 485 ]; assay type: functional
[9] = target: Sphingosine 1-phosphate receptor 3 (Homo sapiens, UniProt Q99500); assay: Dose response cell-based high throughput screening assay for antagonists of the Sphingosine 1-Phosphate Receptor 3 (S1P3). [Related pubchem assays: 1429, 485 ]; assay type: functional
[10] = HIV-1 Env-mediated cell fusion inhibitors, dose response, CCR5-tropic Env (AID 2279); assay type: functional
[11] = tested on: HEK293; assay: cells; assay type: functional, cell-based; conditions: Homo sapiens
[12] = NIH-3T3 fibroblast cytotoxicity, dose response, cytotoxicity control, cell-based, fluorescence, Alamar Blue, secondary assay (AID 2327); assay type: functional;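 note: NIH-3T3 mouse fibroblasts cultured with fluconazole at 8 µg/mL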
[13] = target: T5, Neuropeptide Y receptor type 2 (Homo sapiens, UniProt P49146); assay: NPY-Y2 antagonist potency, selectivity check, dose response, counter-screen for NPY-Y1 antagonist project, cell-based (AID 1278); assay type: functional
[14] = tested on: HEK293; assay: NOD1 signaling inhibitors, primary screen, cell-based, luminescence, uHTS (AID 1578); assay type: functional; conditions: Homo sapiens
[15] = target: Nucleotide-binding oligomerization domain-containing protein 2 (Homo sapiens, UniProt Q9HC29); assay: NOD2 signaling inhibitors, cell-based, luminescence, uHTS, HEK293 (AID 1566); assay type: functional
[16] = tested on: HEK293; assay: cells; assay type: functional, cell-based; conditions: Homo sapiens; remark: listed apart in the source
[17] = tested on: HEK293; assay: NOD2 signaling inhibitors in MDP-stimulated cells, cell-based, uHTS, luminescence (AID 2001); assay type: functional; conditions: Homo sapiens
[18] = tested on: HEK293; assay: cells; assay type: functional, cell-based; conditions: Homo sapiens; remark: listed apart in the source
[19] = target: T6, Neuropeptide Y receptor type 1 (Homo sapiens, UniProt P25929); assay: NPY-Y1 receptor antagonist potency, dose response, cell-based (AID 1277); assay type: functional
[20] = target: T4, Peroxisome proliferator-activated receptor gamma/Nuclear receptor coactivator 1; assay type: functional
[21] = target: T1, Peroxisome proliferator-activated receptor gamma/Nuclear receptor coactivator 3; assay type: functional
[22] = target: T3, Peroxisome proliferator-activated receptor gamma/Nuclear receptor coactivator 2; assay type: functional
[23] = target: T7, Protein RecA (Mycobacterium tuberculosis, UniProt P9WHJ3); assay: Fluorescence Cell-Free Homogeneous Dose Retest to Identify Inhibitors of RecA-Intein Splicing Activity. [Related pubchem assays (depositor defined):AID2097, AID2223, AID489010, AID492950]; assay type: functional
T7 sequence (P9WHJ3 whole entry): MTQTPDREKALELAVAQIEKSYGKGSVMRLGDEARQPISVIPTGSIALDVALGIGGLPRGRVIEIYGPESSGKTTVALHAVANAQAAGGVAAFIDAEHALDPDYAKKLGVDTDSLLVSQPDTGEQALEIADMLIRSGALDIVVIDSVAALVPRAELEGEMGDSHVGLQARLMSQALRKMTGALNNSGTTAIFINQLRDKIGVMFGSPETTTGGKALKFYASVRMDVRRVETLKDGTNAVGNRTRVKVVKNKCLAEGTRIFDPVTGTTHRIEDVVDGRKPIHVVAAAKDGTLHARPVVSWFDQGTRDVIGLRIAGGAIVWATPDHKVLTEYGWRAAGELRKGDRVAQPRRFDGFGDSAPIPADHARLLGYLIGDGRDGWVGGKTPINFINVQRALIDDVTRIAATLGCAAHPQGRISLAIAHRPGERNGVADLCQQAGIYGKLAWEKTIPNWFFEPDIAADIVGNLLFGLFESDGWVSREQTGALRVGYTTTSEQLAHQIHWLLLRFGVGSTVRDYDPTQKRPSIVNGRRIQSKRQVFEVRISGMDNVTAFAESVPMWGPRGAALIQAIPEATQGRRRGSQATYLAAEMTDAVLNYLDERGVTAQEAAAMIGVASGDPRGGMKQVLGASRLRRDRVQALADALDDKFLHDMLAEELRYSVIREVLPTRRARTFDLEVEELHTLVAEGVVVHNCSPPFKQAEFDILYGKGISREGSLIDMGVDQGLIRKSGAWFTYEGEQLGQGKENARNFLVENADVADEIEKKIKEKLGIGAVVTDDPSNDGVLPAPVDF

[24] = target: T8, Streptokinase A (Streptococcus pyogenes serotype M1, UniProt P10520); assay: S. pyogenes streptokinase expression inhibitors, potency, dose response, plasminogen activation absorbance, OD405 (AID 1914); assay type: functional, Streptococcus pyogenes M1 GAS;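 note: secreted streptokinase activity via plasminogen activation per viability signal from cell pellet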
T8 sequence (P10520 whole entry): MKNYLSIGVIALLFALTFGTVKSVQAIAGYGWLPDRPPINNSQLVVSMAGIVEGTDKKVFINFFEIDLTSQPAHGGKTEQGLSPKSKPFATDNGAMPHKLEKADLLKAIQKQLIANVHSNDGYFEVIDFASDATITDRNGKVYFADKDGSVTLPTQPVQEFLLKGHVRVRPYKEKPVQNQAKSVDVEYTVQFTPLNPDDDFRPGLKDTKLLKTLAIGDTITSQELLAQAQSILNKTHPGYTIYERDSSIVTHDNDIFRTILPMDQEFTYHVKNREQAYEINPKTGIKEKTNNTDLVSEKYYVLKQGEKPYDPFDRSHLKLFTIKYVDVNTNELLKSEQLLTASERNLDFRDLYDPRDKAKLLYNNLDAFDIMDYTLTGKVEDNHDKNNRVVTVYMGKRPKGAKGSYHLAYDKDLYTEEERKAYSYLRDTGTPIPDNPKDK

[25] = target: T9, Replicative DNA helicase DnaB (Mycobacterium tuberculosis, UniProt P9WMR3); assay: DnaB intein splicing inhibitors, dose response, biochemical, cell-free fluorescence (AID 449749); assay type: functional
T9 sequence (P9WMR3 whole entry): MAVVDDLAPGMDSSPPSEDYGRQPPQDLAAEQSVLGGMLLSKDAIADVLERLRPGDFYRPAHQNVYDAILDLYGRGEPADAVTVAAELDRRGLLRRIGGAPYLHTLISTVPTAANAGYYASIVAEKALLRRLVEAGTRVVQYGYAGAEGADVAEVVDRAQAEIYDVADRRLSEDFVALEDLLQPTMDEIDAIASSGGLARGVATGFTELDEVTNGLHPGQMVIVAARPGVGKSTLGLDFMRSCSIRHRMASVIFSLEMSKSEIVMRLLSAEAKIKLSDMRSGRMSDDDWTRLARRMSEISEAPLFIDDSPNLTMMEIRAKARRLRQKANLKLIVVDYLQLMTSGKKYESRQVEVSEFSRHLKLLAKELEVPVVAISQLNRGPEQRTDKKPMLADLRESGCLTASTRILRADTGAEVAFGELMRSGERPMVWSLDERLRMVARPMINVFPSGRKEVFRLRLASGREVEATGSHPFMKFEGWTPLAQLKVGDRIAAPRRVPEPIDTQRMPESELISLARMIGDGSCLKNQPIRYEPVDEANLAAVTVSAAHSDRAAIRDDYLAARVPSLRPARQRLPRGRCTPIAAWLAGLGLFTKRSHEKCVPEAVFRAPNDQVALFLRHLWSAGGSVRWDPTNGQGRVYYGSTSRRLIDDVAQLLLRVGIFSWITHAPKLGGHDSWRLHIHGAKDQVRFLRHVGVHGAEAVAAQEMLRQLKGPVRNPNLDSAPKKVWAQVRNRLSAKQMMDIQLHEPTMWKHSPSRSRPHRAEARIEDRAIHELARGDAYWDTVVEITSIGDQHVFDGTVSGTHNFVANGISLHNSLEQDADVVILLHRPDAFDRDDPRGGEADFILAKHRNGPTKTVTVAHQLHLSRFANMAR

[26] = tested on: Streptococcus; assay: Group A Streptococcus viability loss, dose response, counter-screen for streptokinase expression inhibitor project, luminescence, BacTiterGlo (AID 1915); assay type: functional, organism-based;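 note: potency for reduction of bacterial viability or growth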
[27] = enhancers of respiration in Yfh1-depleted yeast, dose response, Friedreich's ataxia, plus single-dose screen (AID 1465); assay type: functional;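 note: yeast depleted of Yfh1p frataxin homolog grown on glycerol needing respiration; WST-1 tetrazolium dye reduction as measure of cellular dehydrogenase metabolic activity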
[28] = tested on: Streptococcus sp. 'group A'; assay: growth inhibition of control SK(-) GAS strain, dose response, counter-screen for streptokinase expression inhibitor project, luminescence, kanamycin, BacTiterGlo, confirmation (AID 1900); assay type: functional, organism-based
[29] = A High Throughput Confirmatory Assay used to Identify Novel Compounds that Inhibit Mycobacterium Tuberculosis in the absence of Glycerol.; assay type: functional
[30] = microbe, parasite or virus in culture; assay type: functional; conditions: Mycobacterium tuberculosis
[31] = Luminescence Cell-Based Dose Confirmation HTS to Identify Inhibitors of Platelet Dense Granule Release. [Related pubchem assays: 1663 (Primary HTS), 1678 (Summary of Project)]; assay type: functional
[32] = target: T6, Neuropeptide Y receptor type 1; assay type: functional
[33] = target: Luciferin 4-monooxygenase (Photinus pyralis, UniProt P08659); assay: firefly luciferase enzyme inhibitors, dose response, biochemical, luminescence (AID 1891)
[34] = target: T5, Neuropeptide Y receptor type 2; assay type: functional, cell-based
[35] = target: Cytochrome P450 2C19 (Homo sapiens, UniProt P33261); assay: qHTS Assay for Inhibitors and Substrates of Cytochrome P450 2C19. [Related pubchem assays: 410 ]; assay type: ADME; conditions: read-out: Potency
[36] = target: Cytochrome P450 2D6 (Homo sapiens, UniProt P10635); assay: qHTS Assay for Inhibitors and Substrates of Cytochrome P450 2D6. [Related pubchem assays: 410 ]; assay type: ADME; conditions: read-out: Potency

T6 sequence (P25929 whole entry): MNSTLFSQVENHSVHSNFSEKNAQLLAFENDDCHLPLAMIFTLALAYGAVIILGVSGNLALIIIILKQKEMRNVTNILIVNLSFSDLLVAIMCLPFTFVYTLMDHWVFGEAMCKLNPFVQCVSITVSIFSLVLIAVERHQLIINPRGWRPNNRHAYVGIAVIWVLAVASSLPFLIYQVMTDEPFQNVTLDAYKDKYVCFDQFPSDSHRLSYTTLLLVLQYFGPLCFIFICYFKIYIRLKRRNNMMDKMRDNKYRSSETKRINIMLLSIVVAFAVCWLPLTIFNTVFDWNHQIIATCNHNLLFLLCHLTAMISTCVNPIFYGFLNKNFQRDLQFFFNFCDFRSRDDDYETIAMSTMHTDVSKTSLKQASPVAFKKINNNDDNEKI
T5 sequence (P49146 whole entry): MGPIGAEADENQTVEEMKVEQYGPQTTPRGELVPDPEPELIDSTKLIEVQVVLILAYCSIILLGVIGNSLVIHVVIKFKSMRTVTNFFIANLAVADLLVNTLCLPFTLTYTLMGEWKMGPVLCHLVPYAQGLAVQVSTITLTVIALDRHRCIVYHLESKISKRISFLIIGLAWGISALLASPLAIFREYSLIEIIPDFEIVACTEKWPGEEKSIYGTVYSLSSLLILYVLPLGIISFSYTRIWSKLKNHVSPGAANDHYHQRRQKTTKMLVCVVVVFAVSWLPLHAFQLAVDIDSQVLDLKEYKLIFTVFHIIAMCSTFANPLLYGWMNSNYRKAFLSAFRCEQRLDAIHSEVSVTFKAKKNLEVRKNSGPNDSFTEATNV
T1 sequence (P37231 whole entry): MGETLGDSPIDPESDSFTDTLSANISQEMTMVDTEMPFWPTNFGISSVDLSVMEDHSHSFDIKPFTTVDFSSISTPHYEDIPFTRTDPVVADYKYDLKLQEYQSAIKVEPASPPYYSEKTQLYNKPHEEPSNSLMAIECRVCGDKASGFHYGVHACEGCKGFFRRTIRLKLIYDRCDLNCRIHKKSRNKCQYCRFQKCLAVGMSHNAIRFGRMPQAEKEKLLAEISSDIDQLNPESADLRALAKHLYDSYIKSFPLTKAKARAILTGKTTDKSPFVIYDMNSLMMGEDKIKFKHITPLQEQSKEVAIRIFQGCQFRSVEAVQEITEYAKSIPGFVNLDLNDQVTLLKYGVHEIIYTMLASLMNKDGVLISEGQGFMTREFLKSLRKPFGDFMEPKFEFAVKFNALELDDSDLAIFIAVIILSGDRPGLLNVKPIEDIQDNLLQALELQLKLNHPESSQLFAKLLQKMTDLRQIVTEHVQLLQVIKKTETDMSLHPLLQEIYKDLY
T1 sequence (Q9Y6Q9 whole entry, further chain): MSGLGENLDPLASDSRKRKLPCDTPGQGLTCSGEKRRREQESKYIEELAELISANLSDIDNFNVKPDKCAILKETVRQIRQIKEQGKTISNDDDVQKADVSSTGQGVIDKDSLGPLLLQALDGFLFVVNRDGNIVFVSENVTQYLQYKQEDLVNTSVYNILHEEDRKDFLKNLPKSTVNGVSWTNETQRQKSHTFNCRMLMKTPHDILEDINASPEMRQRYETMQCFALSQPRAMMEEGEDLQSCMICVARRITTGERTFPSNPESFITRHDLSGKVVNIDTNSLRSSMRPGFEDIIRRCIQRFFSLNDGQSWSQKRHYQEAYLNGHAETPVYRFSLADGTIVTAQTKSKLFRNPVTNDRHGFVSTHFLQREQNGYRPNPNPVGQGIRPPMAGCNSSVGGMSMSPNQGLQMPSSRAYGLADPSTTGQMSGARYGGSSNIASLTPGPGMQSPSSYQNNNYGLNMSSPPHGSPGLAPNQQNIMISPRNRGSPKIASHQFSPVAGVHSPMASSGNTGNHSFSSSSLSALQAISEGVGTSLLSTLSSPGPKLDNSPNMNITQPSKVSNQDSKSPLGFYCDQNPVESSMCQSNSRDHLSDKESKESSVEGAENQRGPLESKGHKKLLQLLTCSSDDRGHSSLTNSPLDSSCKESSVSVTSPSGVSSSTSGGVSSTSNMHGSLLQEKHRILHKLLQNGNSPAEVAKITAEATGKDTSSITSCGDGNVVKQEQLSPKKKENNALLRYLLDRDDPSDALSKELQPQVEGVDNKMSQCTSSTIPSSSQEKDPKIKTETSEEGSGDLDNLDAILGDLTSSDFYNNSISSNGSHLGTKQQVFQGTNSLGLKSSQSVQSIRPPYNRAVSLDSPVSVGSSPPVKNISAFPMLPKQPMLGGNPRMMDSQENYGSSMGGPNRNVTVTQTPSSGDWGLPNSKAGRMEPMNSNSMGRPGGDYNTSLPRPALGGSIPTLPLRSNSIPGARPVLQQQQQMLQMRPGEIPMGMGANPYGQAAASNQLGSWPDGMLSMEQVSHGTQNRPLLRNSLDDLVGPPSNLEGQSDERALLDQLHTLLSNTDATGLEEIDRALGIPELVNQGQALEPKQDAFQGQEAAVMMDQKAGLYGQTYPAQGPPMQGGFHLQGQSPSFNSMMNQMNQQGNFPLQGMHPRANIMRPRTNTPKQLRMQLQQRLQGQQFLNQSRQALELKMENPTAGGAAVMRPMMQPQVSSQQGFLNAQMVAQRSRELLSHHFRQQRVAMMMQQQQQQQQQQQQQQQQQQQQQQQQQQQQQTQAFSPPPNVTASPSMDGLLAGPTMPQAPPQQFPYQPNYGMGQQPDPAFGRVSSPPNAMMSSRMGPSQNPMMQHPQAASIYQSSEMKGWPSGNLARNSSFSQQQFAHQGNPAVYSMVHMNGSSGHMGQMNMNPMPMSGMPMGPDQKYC
T4 sequence (P37231 whole entry): as the sequence (P37231 whole entry) above
T4 sequence (Q15788 whole entry, further chain): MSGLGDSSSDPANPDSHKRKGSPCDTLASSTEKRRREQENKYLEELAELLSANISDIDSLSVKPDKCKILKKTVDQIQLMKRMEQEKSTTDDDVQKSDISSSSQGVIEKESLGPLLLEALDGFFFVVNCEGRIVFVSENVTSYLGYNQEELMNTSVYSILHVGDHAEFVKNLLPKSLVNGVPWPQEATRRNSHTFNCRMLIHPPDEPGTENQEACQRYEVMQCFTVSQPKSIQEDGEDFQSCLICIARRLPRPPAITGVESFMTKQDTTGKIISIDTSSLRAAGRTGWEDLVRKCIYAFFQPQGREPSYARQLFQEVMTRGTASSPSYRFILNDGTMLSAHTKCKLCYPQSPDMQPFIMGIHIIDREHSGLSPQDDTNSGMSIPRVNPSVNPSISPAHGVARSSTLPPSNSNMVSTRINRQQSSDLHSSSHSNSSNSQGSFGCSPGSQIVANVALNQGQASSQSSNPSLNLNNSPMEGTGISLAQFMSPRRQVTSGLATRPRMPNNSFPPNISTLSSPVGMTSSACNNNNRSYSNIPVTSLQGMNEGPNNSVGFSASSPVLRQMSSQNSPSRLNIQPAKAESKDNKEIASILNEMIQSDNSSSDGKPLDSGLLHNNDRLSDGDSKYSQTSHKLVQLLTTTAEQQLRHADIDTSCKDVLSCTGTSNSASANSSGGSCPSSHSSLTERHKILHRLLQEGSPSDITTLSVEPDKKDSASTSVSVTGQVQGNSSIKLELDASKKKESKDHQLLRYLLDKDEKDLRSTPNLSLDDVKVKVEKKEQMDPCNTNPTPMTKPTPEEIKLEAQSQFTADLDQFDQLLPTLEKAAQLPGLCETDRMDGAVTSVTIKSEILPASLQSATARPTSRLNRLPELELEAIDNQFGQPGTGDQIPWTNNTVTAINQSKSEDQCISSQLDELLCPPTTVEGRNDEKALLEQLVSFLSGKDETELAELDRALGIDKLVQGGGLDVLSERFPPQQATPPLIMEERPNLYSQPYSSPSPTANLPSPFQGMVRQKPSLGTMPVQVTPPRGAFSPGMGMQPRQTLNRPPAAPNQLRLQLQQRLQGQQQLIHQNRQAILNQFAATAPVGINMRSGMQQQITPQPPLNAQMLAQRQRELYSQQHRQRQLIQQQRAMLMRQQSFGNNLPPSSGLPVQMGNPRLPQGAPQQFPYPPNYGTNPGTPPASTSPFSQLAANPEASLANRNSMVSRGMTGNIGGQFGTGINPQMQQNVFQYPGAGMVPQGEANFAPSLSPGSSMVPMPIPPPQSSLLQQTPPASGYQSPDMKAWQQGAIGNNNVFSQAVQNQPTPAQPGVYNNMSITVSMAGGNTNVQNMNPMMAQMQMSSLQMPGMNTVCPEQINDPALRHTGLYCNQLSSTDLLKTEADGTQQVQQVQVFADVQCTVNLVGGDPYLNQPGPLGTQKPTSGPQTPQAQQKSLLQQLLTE
Chain of Sphingosine 1-phosphate receptor 3 (Q99500 whole entry, the tested form may be a part): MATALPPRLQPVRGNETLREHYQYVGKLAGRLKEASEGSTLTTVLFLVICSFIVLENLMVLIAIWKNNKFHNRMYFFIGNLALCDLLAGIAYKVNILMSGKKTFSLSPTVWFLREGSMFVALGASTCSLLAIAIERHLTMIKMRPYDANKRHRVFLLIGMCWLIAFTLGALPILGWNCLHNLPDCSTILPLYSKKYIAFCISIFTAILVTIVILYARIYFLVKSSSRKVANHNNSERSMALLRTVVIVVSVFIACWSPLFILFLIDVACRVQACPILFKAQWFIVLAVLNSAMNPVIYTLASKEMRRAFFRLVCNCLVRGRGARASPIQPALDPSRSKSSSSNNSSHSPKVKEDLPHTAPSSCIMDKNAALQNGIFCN

CC(CC1CC(C)(C)OC1=O)C(=O)Nc1ccc([N+](=O)[O-])cc1 (stereo unspecified)
CC50 [1]: > 99 µM (not active)

Cc1cccc(-n2c(=S)[nH]c3sc4c(c3c2=O)CCc2ccccc2-4)c1
EC50 [2]: > 79.4 µM (not active)
IC50 [3]: > 80 µM (inactive)
IC50 [4]: 36.3 µM (active)
EC50 [5]: > 79.4 µM (not active)
EC50 [6]: > 79.4 µM (inactive)
IC50 [7]: > 50 µM (not active)

Cc1ccc(NC(=O)C(c2ccccc2)C2CCCC2)cc1 (stereo unspecified)
IC50 [8]: 7.06 µM (active)
IC50 [9]: 2.43 µM (active)

COc1ccc(S(=O)(=O)Nc2ccccc2C(=O)Nc2nc(-c3ccc(F)cc3)cs2)cc1OC
IC50 [10]: 4.41 µM (active)

CC1(C)CC(N2CCCCCC2)=CC(=[N+]2CCCC2)C1
IC50 [11]: > 20 µM (inactive)
EC50 [12]: > 150 µM (inactive)
IC50 [13]: > 35 µM (not active)
EC50 [14]: 4.99 µM (active)
EC50 [15]: 17.5 µM (active)
IC50 [16]: > 20 µM (inactive)
IC50 [17]: 16.4 µM (inactive)
IC50 [18]: 8.01 µM (active)
IC50 [19]: > 35 µM (not active)

CCOc1cccc(C(=O)Nc2nnc(-c3cccs3)s2)c1
EC50 [20]: 24.1 µM (not active)
EC50 [21]: 30.3 µM (not active)
EC50 [22]: 22.2 µM (not active)

N#C/C(=N\Nc1ccc(S(=O)(=O)N2CCc3ccccc32)cc1)C(N)=S
EC50 [23]: 31.7 µM (active)
EC50 [24]: > 150 µM (not active)
AC50 [25]: 2.32 µM (active)
EC50 [26]: 40 µM (active)
EC50 [27]: > 100 µM (active)
EC50 [28]: 14.5 µM (active)

CC(C)NC(=S)N/N=C/c1c[nH]c2ccccc12
IC50 [29]: > 100 µM (active)
CC50 [30]: > 40 µM (active)

COc1cc(/C=N/NC(N)=O)ccc1OCC(=O)Nc1ccc(C)c(C)c1
EC50 [31]: 11.4 µM (active)
IC50 [32]: > 35 µM (not active)
EC50 [33]: > 112 µM (not active)
IC50 [34]: 9.83 µM (active)

C[C@@H](C(=O)O)c1ccc(N2Cc3ccccc3C2=O)cc1 [(R)-INDOPROFEN]
AC50 [35]: 10 µM (inconclusive)
AC50 [36]: 7.94 µM (inconclusive)
